Source: PubChem BioAssay (NCI)
Values joined by “and” are separate entries in the source; they are usually repeats but may differ in a detail not shown here. Identical values can stand only once.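 Where inhibition never reached the appropriate level, the endpoint shown equals the highest concentration tested. Otherwise, values were interpolated linearly from a five-concentration, 48-hour dose response in 96-well plates. GI50: concentration for 50% inhibition of growth. TGI marks complete inhibition of growth.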

Key:
Test in all cases: NCI-60 cell line screen, 48 h
[1] = tested on: SNB-78 CNS
[2] = tested on: LXFL 529 NSCLC
[3] = tested on: HOP-18 NSCLC
[4] = tested on: M19-MEL melanoma
[5] = tested on: DMS 114 small cell lung
[6] = tested on: DLD-1 colon
[7] = tested on: XF 498 CNS

Row | Structure (SMILES) | GI50 [1] | TGI [1] | GI50 [2] | TGI [2] | TGI [3] | GI50 [4] | TGI [4] | GI50 [5] | TGI [5] | TGI [6] | TGI [7]
1 | CSc1nc(-c2ccc(Cl)cc2)c(C#N)c(=O)n1C1OC(COC(C)=O)C(OC(C)=O)C(OC(C)=O)C1OC(C)=O (stereo unspecified) | 12.4 µM and > 100 µM | 39.6 µM and > 100 µM | 26 µM and > 100 µM | > 100 µM | > 100 µM | 34.3 µM and > 100 µM | > 100 µM | 24.6 µM and > 100 µM | > 100 µM | > 100 µM | > 100 µM
2 | COc1ccc(CNc2cnc3cc(N)ccc3n2)cc1 |  | > 100 µM |  | > 100 µM |  |  | > 100 µM |  | > 100 µM |  | > 100 µM
3 | C=C(C)C12CC3CC(/C(=N/O)C(C1)/C3=N\O)[C@@]2(C)O (stereo partly specified) |  | > 100 µM |  | > 100 µM |  |  | > 100 µM |  | > 100 µM | > 100 µM | 
4 | OC12c3ccccc3C1CCCCC2N1CCCC1 (stereo unspecified) |  | > 100 µM |  | > 100 µM | > 100 µM |  | > 100 µM |  | > 100 µM |  | 
